Reference: patent US8901315B2, “Thienopyrazole derivative having PDE7 inhibitory activity” (Daiichi Sankyo Company, Limited, priority 2004, dated 2014)

What was measured:
[1] = target: PDE 7 (phosphodiesterase VII) (Homo sapiens (Human), UniProt Q13946); test: PDE 7 inhibiting effect (3H-cAMP hydrolysis, PDE 7 active fraction from MOLT-4 cells); assay type: biochemical; settings: PDE 7 fraction from MOLT-4 cells, 0.064 μM cAMP, 10 μM rolipram, 2 hours at 25° C.; read-out: PDE7 IC50
Summary of the method: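 PDE7 taken from the soluble fraction of human MOLT-4 T cells (homogenised in pH 7.5 Tris buffer, 100,000×G spin), partially purified on HiTrap Q with a 0–0.8 M NaCl gradient. Inhibition measured as ³H-cAMP hydrolysis, with product separated using Sephadex-QAE in 10 mM HEPES-Na pH 7.0.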

[2] = target: PDE 4 (phosphodiesterase IV); test: PDE 4 inhibiting effect (3H-cAMP hydrolysis, PDE 4 active fraction from Balb/c mouse liver); assay type: biochemical; settings: PDE 4 fraction from Balb/c mice liver, 0.064 μM cAMP, 2 hours at 25° C.; read-out: PDE4 IC50
Summary of the method: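 PDE4 was taken from the soluble liver fraction of male Balb/c mice (12 weeks), purified on DEAE sepharose with a sodium acetate gradient. Inhibition was measured as hydrolysis of 3H-cAMP. The reaction was followed by Sephadex-QAE treatment in HEPES-Na pH 7.0.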

Sequence of PDE 7 (phosphodiesterase VII) (Q13946 whole entry): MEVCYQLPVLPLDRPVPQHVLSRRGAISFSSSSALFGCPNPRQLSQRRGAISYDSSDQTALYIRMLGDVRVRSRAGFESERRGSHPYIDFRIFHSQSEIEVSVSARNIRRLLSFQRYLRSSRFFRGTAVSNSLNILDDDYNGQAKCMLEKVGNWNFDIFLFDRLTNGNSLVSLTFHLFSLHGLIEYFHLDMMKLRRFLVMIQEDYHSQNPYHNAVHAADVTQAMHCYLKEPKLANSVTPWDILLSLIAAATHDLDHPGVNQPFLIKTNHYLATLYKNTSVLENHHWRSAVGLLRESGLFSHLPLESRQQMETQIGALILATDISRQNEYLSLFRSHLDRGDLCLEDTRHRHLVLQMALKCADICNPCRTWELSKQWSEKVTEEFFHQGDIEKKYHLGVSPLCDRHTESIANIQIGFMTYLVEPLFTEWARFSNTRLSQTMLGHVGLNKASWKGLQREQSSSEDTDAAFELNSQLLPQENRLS

Cc1nn(C2CCCCC2)c2sc(C(=O)Nc3ccc(C(=O)N4CCN(C)CC4)nc3)cc12 [Example 380, 1-Cyclohexyl-3-methyl N-{6-[(4-methyl-1-piperazinyl)carbonyl]-3-pyridinyl}-1H-thieno[2,3-c]pyrazole-5-carboxamide]
IC50 [1]: 0.056 µM
IC50 [2]: 1.5 µM

Cc1nn(C2CCCCC2)c2sc(C(=O)Nc3ccc(C(=O)NCCN(C)C)nc3)cc12 [Example 381]
IC50 [1]: 0.022 µM
IC50 [2]: 0.67 µM

Cc1nn(C2CCCCC2)c2sc(C(=O)Nc3ccc(C(=O)N[C@H]4CC[C@H](O)CC4)nc3)cc12 [Example 382, 1-Cyclohexyl-N-(6-{[(trans-4-hydroxycyclohexyl)amino]carbonyl}-3-pyridinyl)-3-methyl-1H-thieno[2,3-c]pyrazole-5-carboxamide]
IC50 [1]: 0.025 µM
IC50 [2]: 0.62 µM

Cc1nn(C2CCCCC2)c2sc(C(=O)Nc3ccc(C(=O)N4CCCN(C)CC4)nc3)cc12 [Example 383]
IC50 [1]: 0.074 µM
IC50 [2]: 2.4 µM

CC(=O)N1CCN([C@H]2CC[C@H](NC(=O)c3cc4c(C)nn(C5CCOCC5)c4s3)CC2)CC1 [Example 395, N-[trans-4-(4-Acetyl-1-piperazinyl)cyclohexyl]-3-methyl-1-tetrahydro-2H-pyran-4-yl-1H-thieno[2,3-c]pyrazole-5-carboxamide]
IC50 [1]: 0.019 µM
IC50 [2]: 1.4 µM

Cc1nn(C2CCOCC2)c2sc(C(=O)N[C@H]3CC[C@H](N4CCN(S(C)(=O)=O)CC4)CC3)cc12 [Example 396, 3-Methyl-N-{trans-4-[4-(methylsulfonyl)-1-piperazinyl]cyclohexyl}-1-tetrahydro-2H-pyran-4-yl-1H-thieno[2,3-c]pyrazole-5-carboxamide]
IC50 [1]: 0.022 µM
IC50 [2]: 0.9 µM

Cc1nn(C2CCOCC2)c2sc(C(=O)N[C@H]3CC[C@H](N4C[C@@H](C)O[C@@H](C)C4)CC3)cc12 [Example 402, N-[trans-4-(cis-2,6-Dimethylmorpholinyl)cyclohexyl]-3-methyl-1-tetrahydro-2H-pyran-4-yl-1H-thieno[2,3-c]pyrazole-5-carboxamide]
IC50 [1]: 0.019 µM
IC50 [2]: 7.3 µM

Cc1nn(C2CCCCC2)c2sc(C(=O)Nc3ccc(CO)nc3)cc12 [Example 404, 1-Cyclohexyl-N-[6-(hydroxymethyl)-3-pyridinyl]-3-methyl-1H-thieno[2,3-c]pyrazole-5-carboxamide]
IC50 [1]: 0.032 µM
IC50 [2]: 3.5 µM

Cc1nn(C2CCCCC2)c2sc(C(=O)Nc3ccc(CN4CCC(O)CC4)nc3)cc12 [Example 413, 1-Cyclohexyl-N-{6-[(4-hydroxy-1-piperidinyl)methyl]-3-pyridinyl}-3-methyl-1H-thieno[2,3-c]pyrazole-5-carboxamide]
IC50 [1]: 0.03 µM
IC50 [2]: 2.5 µM

CC(=O)N1CCN(Cc2ccc(NC(=O)c3cc4c(C)nn(C5CCCCC5)c4s3)cn2)CC1 [Example 414, N-{6-[(4-Acetyl-1-piperazinyl)methyl]-3-pyridinyl}-1-cyclohexyl-3-methyl-1H-thieno[2,3-c]pyrazole-5-carboxamide]
IC50 [1]: 0.035 µM
IC50 [2]: 2.8 µM

Cc1nn(C2CCOCC2)c2sc(C(=O)N[C@H]3CC[C@H](N4CCN(C)CC4=O)CC3)cc12 [Example 415, 3-Methyl-N-[trans-4-(4-methyl-2-oxo-piperazinyl)cyclohexyl]-1-tetrahydro-2H-pyran-4-yl-1H-thieno[2,3-c]pyrazole-5-carboxamide]
IC50 [1]: 0.093 µM
IC50 [2]: 5.1 µM

Cc1nn(C2CCCCC2)c2sc(C(=O)N[C@H]3CC[C@H](N4CCN(C)CC4=O)CC3)cc12 [Example 416, 1-Cyclohexyl-3-methyl-N-[trans-4-(4-methyl-2-oxo-1-piperazinyl)-cyclohexyl]-1H-thieno[2,3-c]pyrazole-5-carboxamide]
IC50 [1]: 0.017 µM
IC50 [2]: 1.3 µM

Cc1nn(C2CCOCC2)c2sc(C(=O)N[C@H]3CC[C@H](N4CCNC(=O)C4)CC3)cc12 [Example 417, 3-Methyl-N-[trans-4-(3-oxo-piperazinyl)cyclohexyl]-1-tetrahydro-2H-pyran-4-yl-1H-thieno[2,3-c]pyrazole-5-carboxamide]
IC50 [1]: 0.063 µM
IC50 [2]: 7 µM

Cc1nn(C2CCOCC2)c2sc(C(=O)N[C@H]3CC[C@H](N4CCN(C)C(=O)C4)CC3)cc12 [Example 419, 3-Methyl-N-[trans-4-(4-methyl-3-oxo-1-piperazinyl)cyclohexyl]-1-tetrahydro-2H-pyran-4-yl-1H-thieno[2,3-c]pyrazole-5-carboxamide]
IC50 [1]: 0.029 µM
IC50 [2]: 5.7 µM

Cc1nn(C2CCOCC2)c2sc(C(=O)N[C@H]3CC[C@H](N4CCC(CO)CC4)CC3)cc12 [Example 423]
IC50 [1]: 0.072 µM
IC50 [2]: 8.1 µM

Cc1nn(C2CCOCC2)c2sc(C(=O)N[C@H]3CC[C@H](N4CCC(O)CC4)CC3)cc12 [Example 425, N-[trans-4-(4-Hydroxy-1-piperidinyl)cyclohexyl]-3-methyl-1-tetrahydro-2H-pyran-4-yl-1H-thieno[2,3-c]pyrazole-5-carboxamide]
IC50 [1]: 0.09 µM
IC50 [2]: 13 µM

Cc1nn(C2CCOCC2)c2sc(C(=O)N[C@H]3CC[C@H](N4CCC(C(=O)N(C)C)CC4)CC3)cc12 [Example 428, N-(trans-4-{4-[(Dimethylamino)carbonyl]-1-piperidinyl}cyclohexyl)-3-methyl-1-tetrahydro-2H-pyran-4-yl-1H-thieno[2,3-c]pyrazole-5-carboxamide]
IC50 [1]: 0.05 µM
IC50 [2]: 9.7 µM

CCN1CCN([C@H]2CC[C@H](NC(=O)c3cc4c(C)nn(C5CCOCC5)c4s3)CC2)CC1=O [Example 436, N-[trans-4-(4-Ethyl-3-oxo-1-piperazinyl)cyclohexyl]-3-methyl-1-tetrahydro-2H-pyran-4-yl-1H-thieno[2,3-c]pyrazole-5-carboxamide]
IC50 [1]: 0.03 µM
IC50 [2]: 7.2 µM

Cc1nn(C2CCOCC2)c2sc(C(=O)Nc3ccc(N4CCN(C)CC4=O)cc3)cc12 [Example 440, 3-Methyl-N-[4-(4-methyl-2-oxo-piperazinyl)phenyl]-1-tetrahydro-2H-pyran-4-yl-1H-thieno[2,3-c]pyrazole-5-carboxamide]
IC50 [1]: 0.097 µM
IC50 [2]: 28 µM
